The values that follow come from publication PMC8348110, “A Novel Peptide Derived from the Transmembrane Domain of Romo1 Is a Promising Candidate for Sepsis Treatment and Multidrug-Resistant Bacteria” (International Journal of Molecular Sciences, 2021).

Data set [1] relates to Methicillin-resistant S. aureus (MRSA) ATCC 33591. The format is cell-based, Staphylococcus aureus. In short, it runs like this: (§1)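 Steps: grow cells to mid-log; dilute to 5 × 10^5 CFU/mL in 10 mM sodium phosphate, pH 7.4, with 1% TS broth; add peptide (two-fold dilutions starting at 64 μg/mL) for 1 h; spread onto TS agar, 37 °C overnight; score the lowest colony-free concentration.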

The test system of data set [2] is Vancomycin-resistant S. aureus NCCP 15872. It counts as cell-based, Staphylococcus aureus. The note with it: Vancomycin-resistant NCCP 15872, 1 h. In short, it runs like this: as §1
In data set [3] the test system is Acinetobacter baumannii ATCC 19606. In words: Modified MBC determination. The format is cell-based. The note with it: Table 2. On the procedure:
(§2) The minimum bactericidal concentration (MBC) was determined as previously described with minor modifications. Briefly, bacteria were cultured in the mid-log phase and diluted to 5 × 10^5 colony-forming unit (CFU)/mL in 10 mM sodium phosphate buffer (pH 7.4) with a 1% volume of TS broth. They were incubated for 1 h with various peptides which were two-fold diluted serially from 64 μg/mL to 0 μg/mL concentrations in a 96-well plate. The samples were inoculated TS agar plate and incubated overnight at 37 °C. The value of MBC was determined at the lowest concentrations at which no colonies were identified.
(§3) We used the CFU counting method to measure antibacterial activity, with all bacteria cultured to the mid-log phase in an appropriate broth medium. Bacterial CFUs were counted after overnight culture at 37 °C on TS or LB agar plates. The MBC value and antibacterial activity in blood components were determined as previously described. Mouse and human whole blood were collected and diluted with PBS (pH 7.4) to measure the ex vivo antibacterial activity of AMPR-22. For that test, AMPR-22 (10 μg) was added to each whole blood solution and incubated at 37 °C with shaking at 200 rpm. At each time point, it was incubated with bacteria (1 × 10^3 CFU) for 30 min. Each sample was inoculated on an LB agar plate, and CFU counting was performed. To measure the in vivo activity of AMPR-22, 1 × 10^8 CFU of bacteria were injected into BALB/c mice, and an hour later, 10 mg/kg of the test peptides were injected. Blood samples were collected by tail cut, serially diluted with PBS (pH 7.4), and inoculated on LB-agar plates, followed by CFU counting. To estimate the functional half-life of AMPR-22, 40 mg/kg of each tested peptide were injected into mice. Whole blood sampling was performed by cardiac puncture, and the plasma was isolated by centrifugation (2000× g, 15 min). The isolated plasma was incubated with bacteria (1 × 10^3 CFU) for an hour, and then the CFU counting method was performed.

In data set [4] the test system is Bacillus subtilis ATCC 6633. In words: Modified MBC determination. Conditions: Table 2. The format is cell-based. How it is done: as §2, §3
Data set [5] relates to Enterobacter aerogenes ATCC 13048. In words: Modified MBC determination. The format is cell-based. The note with it: Table 2. How it is done: as §2, §3
In data set [6] the test system is Enterococcus faecalis ATCC 19433. In words: Modified MBC determination. It counts as cell-based. Conditions: Table 2. On the procedure: as §2, §3
Data set [7] has as its system Enterococcus faecium ATCC 19434. As to the kind of experiment: Modified MBC determination. The format is cell-based. Conditions: Table 2. On the procedure: as §2, §3
For data set [8], the system named is Escherichia coli ATCC 25922. As to the kind of experiment: Modified MBC determination. It counts as cell-based. Conditions: Table 2. How it is done:
as §2, §3

The subject of data set [9] is Klebsiella pneumoniae ATCC 13883. As to the kind of experiment: Modified MBC determination. The format is cell-based. The note with it: Table 2. How it is done: as §2, §3
Data set [10] concerns Streptomyces sindenensis ATCC 23963. In words: Modified MBC determination. The note with it: Table 2. The format is cell-based. How it is done: as §2, §3
In data set [11] the test system is Vancomycin-resistant E. faecium NCCP 11522. The format is cell-based, Enterococcus faecium. Conditions: Vancomycin-resistant NCCP 11522, 1 h. How it is done: as §2
We used the CFU counting method to measure antibacterial activity, with all bacteria cultured to the mid-log phase in an appropriate broth medium. Bacterial CFUs were counted after overnight culture at 37 °C on TS or LB agar plates. The MBC value and antibacterial activity in blood components were determined as previously described. Mouse and human whole blood were collected and diluted with PBS (pH 7.4) to measure the ex vivo antibacterial activity of AMPR-22. For that test, AMPR-22 (10 μg) was added to each whole blood solution and incubated at 37 °C with shaking at 200 rpm. At each time point, it was incubated with bacteria (1 × 10^3 CFU) for 30 min. Each sample was inoculated on an LB agar plate, and CFU counting was performed. […]

Another data set deals with HeLa cells. It counts as cell-based, human. How it is done: (§4) Mammalian cell viability was measured using a 3-(4,5-dimethylthiazol-2-yl)-2,5-diphenyltetrazolium bromide (MTT) assay in HeLa and HEK 293 cells. Cells were cultured on 96-well plates and incubated separately with AMPR-11, AMPR-21, AMPR-22, magainin 2, or daptomycin. After incubation for an hour, the cells were incubated with MTT solution (2 mg/mL of MTT in PBS) for an hour, and the media were removed, and dimethyl sulfoxide was added to allow the MTT formazans to solubilize. The optical density was measured using a SpectraMax Plus 384 microplate reader (Molecular Devices, San Jose, CA, USA) at 550 nm.

The subject of data set [12] is human embryotic kidney (HEK) 293 cells. The format is cell-based. How it is done:
as §4

The subject of the next data set is human erythrocytes. In words: Hemolysis assay. The format is cell-based. The note with it: 2% erythrocytes in PBS, 1 h 37 °C, absorbance 550 nm; up to / at 256 µg/mL. On the procedure: (§5) For the hemolytic assay, mouse and human whole blood was diluted with PBS (pH 7.4) and centrifuged for 10 min at 500× g. After removing the supernatant and rinsing the pellet three times with PBS, we resuspended the erythrocytes in PBS at 2% volume. The blood solution was added to the solution of peptides with two-fold serial dilution on a 96-well plate. After incubation for an hour at 37 °C, the plate was centrifuged at 2500× g for 10 min, and the absorbance of the supernatant was measured at 550 nm. The PBS-treated sample was the negative control, and the 0.1% Triton X-100–treated sample was the positive control. To measure white blood cell toxicity, mouse and human PBMCs were freshly isolated as previously described, and 70% ethanol (positive control) or AMPR-22 was administered using two-fold diluted concentrations (0 to 256 μg/mL) for 30 min. To measure cell death, a LIVE/DEAD® fixable green dead cell stain kit (Thermo Fisher Scientific, Waltham, MS, USA) was used following the manufacturer′s instructions, and flow cytometry was performed using a FACS Canto II (BD Biosciences, CA, USA). The toxicity of AMPR-22 was compared with negative (PBS-treated) and positive controls, and the data were analyzed using FlowJo software (Tree Star, OR, USA).

The next data set relates to mouse erythrocytes. In words: Hemolysis assay. It counts as cell-based. The note with it: 2% erythrocytes in PBS, 1 h 37 °C, absorbance 550 nm; concentrations up to 256 µg/mL. How it is done: as §5
The next data set relates to human PBMCs. As to the kind of experiment: White blood cell toxicity assay (LIVE/DEAD stain, flow cytometry). The format is cell-based. The note with it: freshly isolated PBMCs, 0 to 256 μg/mL for 30 min. How it is done: as §5
For a further data set, the system named is mouse PBMCs. The description is as above. It counts as cell-based. Conditions: freshly isolated PBMCs, 0 to 256 μg/mL for 30 min. How it is done: as §5

In brackets after ≈: the same amount, converted by molar mass. Residues, ends and D or L forms follow the SMILES beside them.

Consider `CC[C@H](C)[C@H](NC(=O)CNC(=O)CNC(=O)[C@@H](NC(=O)[C@H](C)NC(=O)[C@H](CCSC)NC(=O)[C@H](Cc1ccccc1)NC(=O)[C@@H](NC(=O)CNC(=O)[C@H](Cc1ccccc1)NC(=O)[C@H](CCCCN)NC(=O)CNC(=O)CNC(=O)[C@H](CCCCN)NC(=O)[C@H](CCCCN)NC(=O)[C@H](CCSC)NC(=O)[C@H](CCSC)NC(=O)[C@H](CCCCN)NC(=O)[C@@H](N)CCCCN)[C@@H](C)O)[C@@H](C)CC)C(=O)N[C@@H](CCCNC(=N)N)C(=O)O` [AMPR-22] (H-KKMMKKGGKFGTFMAIGGIR-OH), for which the “MBC Value, MRSA” value in data set [1] (ATCC 33591, 1 h) is given as 2 µg/mL (≈ 0.915 µM). Further, the “MBC Value, Methicillin-resistant S. aureus” value in data set [1] (Table 2, ATCC 33591, modified MBC) amounted to 2 µg/mL (≈ 0.915 µM). Also, in data set [2], the “MBC Value, Vancomycin-resistant S. aureus” value is listed as 4 µg/mL (≈ 1.83 µM). In addition, in data set [3], the “MBC Value, Acinetobacter baumannii” value is 1 µg/mL (≈ 0.457 µM). In addition, the “MBC Value, Bacillus subtilis” value in data set [4] amounted to 1 µg/mL (≈ 0.457 µM). For the same compound, in data set [5], the “MBC Value, Enterobacter aerogenes” value amounted to 2 µg/mL (≈ 0.915 µM). The “MBC Value, Enterococcus faecalis” value in data set [6] is 4 µg/mL (≈ 1.83 µM). Besides, the “MBC Value, Enterococcus faecium” value in data set [7] was determined as 4 µg/mL (≈ 1.83 µM). Moreover, the “MBC Value, Escherichia coli” value in data set [8] is 1 µg/mL (≈ 0.457 µM). The “MBC Value, Klebsiella pneumoniae” value in data set [9] is 1 µg/mL (≈ 0.457 µM). For the same compound, the “MBC Value, Streptomyces sindenensis” value in data set [10] is 2 µg/mL (≈ 0.915 µM). Further, in [11], the “MBC Value, Vancomycin-resistant E. faecium” value turned out to be 4 µg/mL (≈ 1.83 µM). In the data set with HeLa cells, the “Cytotoxicity, HeLa cells” value is recorded as “slight cytotoxicity”. In [12], the “Cytotoxicity, HEK 293 cells” value is “slight cytotoxicity”. In addition, in the data set on human erythrocytes, the “Hemolytic activity against human erythrocytes” value is given as “negligible hemolytic activity”. Also, the “Hemolytic activity against mouse erythrocytes” value in the data set with mouse erythrocytes is “relatively endurable hemolysis properties”. In addition, the “Cytotoxic activity against human leukocytes” value in the data set on human PBMCs is on record as “negligible cytotoxic activity”. The “Cytotoxic activity against mouse leukocytes” value in the data set with mouse PBMCs was “negligible cytotoxic activity”.
